These results are taken from patent US20230406831A1, “COMPOUNDS AND METHODS OF INHIBITING BACTERIAL CHAPERONIN SYSTEMS” (THE TRUSTEES OF INDIANA UNIVERSITY, priority 2020, published 2023).

Read-outs that look alike come from different tables or passages of the source.

The term CC50 denotes the concentration at which the toxic effect on the cells reaches its halfway point.

The subject of one data set is S. aureus. Kind of data set: S. aureus bacterial proliferation assay. The data set is classed as cell-based. To be noted: cation adjusted BHI media, OD600 at 6-8 h; for S. aureus Proliferation EC50: Table 2; for EC50: Staphylococcus aureus, Table 3, read-out: S. aureus Proliferation EC50. The protocol: Evaluation of compounds for inhibition of bacterial cell proliferation.
Growth Media: S. aureus bacteria were grown in Brain Heart Infusion (BHI) broth/agar (Becton, Dickinson and Company). All liquid cultures were grown in BHI media supplemented with 25 mg/L Ca^2+ and 12.5 mg/L Mg^2+ to mimic free physiological concentrations of these cations. A 10 mg/mL Ca^2+ stock solution was prepared by dissolving 3.68 g of CaCl2·2H^2O in 100 mL of deionized water, and a 10 mg/mL Mg^2+ stock solution was prepared by dissolving 8.36 g of […] in 100 mL deionized water. Both stock solutions were filter-sterilized using 0.2 μm pore size cellulose-acetate filters. 2.5 mL of the sterile 10 mg/mL Ca^2+ stock and 1.25 mL of the sterile 10 mg/mL Mg^2+ stock solutions were added per 1 L of autoclaved BHI medium to obtain 25 mg/L Ca^2+ and 12.5 mg/L Mg^2+ ions, respectively.
General Assay Protocol: Stock bacterial cultures were streaked onto BHI agar plates and grown overnight at 37° C. Fresh aliquots of broth were inoculated with single bacterial colonies and the cultures were grown overnight at 37° C. with shaking (240 rpm) in cation adjusted BHI media. The following morning, the overnight cultures were sub-cultured (1:5 dilution) into fresh aliquots of cation adjusted BHI media and grown at 37° C. for 1-2 hours with shaking. After 2 h, cultures were diluted into fresh media to achieve final OD600 readings of 0.017. Aliquots of these diluted cultures (30 μL) were added to clear, flat-bottom, 384-well polystyrene plates that were stamped with 0.5 μL of test compounds in 20 μL media. Compounds were evaluated in dose-response format where the inhibitor concentration range during the proliferation assay was 100 μM to 46 nM (3-fold dilution series). Plates were sealed with “Breathe Easy” oxygen permeable membranes (Diversified Biotech) and left to incubate at 37° C. without shaking (stagnant assay). OD600 nm readings were taken generally at 6-8 h, when bacteria had reached log-phase growth. A second set of baseline control plates were prepared analogously, but without any bacteria added, to correct for possible compound absorbance and/or precipitation. Plates were then read at 600 nm using a Molecular Devices SpectraMax Plus384 microplate reader. EC50 values for the test compounds were obtained by plotting the OD600 results in GraphPad Prism and analyzing by non-linear regression using the log(inhibitor) vs. response (variable slope) equation. For results, see Tables 1, 2, and 3.

Data set [1] in a line: HEK 293 kidney cell viability / cytotoxicity assay (Alamar Blue). The following applies: human, 48 h incubation, Alamar Blue, read-out: HEK 293 Kidney Cell Viability CC50. The data set is classed as cell-based. As for the experimental part: Evaluating compound effects on kidney cell viability.
HEK 293 cells were maintained in MEM medium (Corning Cellgro, 10-009 CV) supplemented with 10% FBS (Sigma, F2242). […] Cells at 80% confluence were harvested and diluted in growth medium, then 45 μL of the HEK 293 cells (1,500 cells/well) were dispensed per well, and plates were sealed with “Breathe Easy” oxygen permeable membranes (Diversified Biotech) and incubated at 37° C., 5% CO2, for 24 h. […] Plates were sealed with “Breathe Easy” oxygen permeable membranes and incubated for an additional 48 h at 37° C. and 5% CO2. The Alamar Blue reporter reagents were then added to a final concentration of 10%, the plates incubated at 37° C. and 5% CO2, and sample fluorescence (535 nm excitation, 590 nm emission) was read using a Molecular Devices FlexStation II 384-well plate reader (readings taken between 4-24 h of incubation so as to achieve signals in the 30-60% range for conversion of resazurin to resorufin). Cell viability was calculated as per vendor instructions (Thermo Fisher—Alamar Blue cell viability assay manual).

As for `Cc1cc(C(C#N)c2ccc(Cl)cc2)c(Cl)cc1NC(=O)c1ccc(O)cc1` (centres unmarked) [Compound 66, N-(5-chloro-4-((4-chlorophenyl)(cyano)methyl)-2-methylphenyl)-4-hydroxybenzamide], the S. aureus Proliferation EC50 in the data set on S. aureus is 4.9 µM. Further, the cytotoxic concentration (CC50) at 48 h in data set [1] (HEK 293 kidney cells, Table 2) was 65 µM.

With `Cc1cc(C(C#N)c2ccc(Cl)cc2)c(Cl)cc1NC(=O)c1ccccc1[N+](=O)[O-]` (centres unmarked) [Compound 67, N-(5-chloro-4-((4-chlorophenyl)(cyano)methyl)-2-methylphenyl)-2-nitrobenzamide], the S. aureus Proliferation EC50 in the data set on S. aureus was above 100 µM. In addition, the cytotoxic concentration (CC50) at 48 h in data set [1] (HEK 293 kidney cells, Table 2) is above 100 µM.

On to `Cc1cc(C(C#N)c2ccc(Cl)cc2)c(Cl)cc1NC(=O)c1cccc([N+](=O)[O-])c1` (centres unmarked) [Compound 68, N-(5-chloro-4-((4-chlorophenyl)(cyano)methyl)-2-methylphenyl)-3-nitrobenzamide], for which, in the data set on S. aureus, the S. aureus Proliferation EC50 is above 100 µM. For the same molecule, in data set [1] (HEK 293 kidney cells, Table 2), the CC50 at 48 h was above 100 µM.

`Cc1cc(C(C#N)c2ccc(Cl)cc2)c(Cl)cc1NC(=O)c1ccc([N+](=O)[O-])cc1` (centres unmarked) [Compound 69, N-(5-chloro-4-((4-chlorophenyl)(cyano)methyl)-2-methylphenyl)-4-nitrobenzamide] had a S. aureus Proliferation EC50 in the data set on S. aureus above 100 µM. The half-maximal cytotoxic concentration (CC50) at 48 h in data set [1] (HEK 293 kidney cells, Table 2) was above 100 µM.

`Cc1cc(C(C#N)c2ccc(Cl)cc2)c(Cl)cc1NC(=O)c1ccccc1N` (centres unmarked) [Compound 70, 2-amino-N-(5-chloro-4-((4-chlorophenyl)(cyano)methyl)-2-methylphenyl)benzamide] yielded a S. aureus Proliferation EC50 with S. aureus above 100 µM. Besides, in data set [1] (HEK 293 kidney cells, Table 2), the CC50 at 48 h worked out at 32 µM.

For `Cc1cc(C(C#N)c2ccc(Cl)cc2)c(Cl)cc1NC(=O)c1cccc(N)c1` (centres unmarked) [Compound 71, 3-amino-N-(5-chloro-4-((4-chlorophenyl)(cyano)methyl)-2-methylphenyl)benzamide], in the data set on S. aureus, the S. aureus Proliferation EC50 was above 100 µM. Also, in data set [1] (HEK 293 kidney cells, Table 2), the CC50 at 48 h worked out at 35 µM.

Consider `Cc1cc(C(C#N)c2ccc(Cl)cc2)c(Cl)cc1NC(=O)c1ccc(N)cc1` (centres unmarked) [Compound 72, 4-amino-N-(5-chloro-4-((4-chlorophenyl)(cyano)methyl)-2-methylphenyl)benzamide], for which the S. aureus Proliferation EC50 with S. aureus was above 100 µM. Also, the 50% cytotoxic concentration (CC50) at 48 h in data set [1] (HEK 293 kidney cells, Table 2) was 53 µM.

`Cc1cc(C(C#N)c2ccc(Cl)cc2)c(Cl)cc1NC(=O)c1ccccc1Br` (centres unmarked) [Compound 73, 2-bromo-N-(5-chloro-4-((4-chlorophenyl)(cyano)methyl)-2-methylphenyl)benzamide] showed a S. aureus Proliferation EC50 with S. aureus above 100 µM. For the same molecule, in data set [1] (Table 2), the CC50 at 48 h was above 100 µM.

`Cc1cc(C(C#N)c2ccc(Cl)cc2)c(Cl)cc1NC(=O)c1cccc(Br)c1` (centres unmarked) [Compound 74, 3-bromo-N-(5-chloro-4-((4-chlorophenyl)(cyano)methyl)-2-methylphenyl)benzamide] registered a S. aureus Proliferation EC50 with S. aureus above 100 µM. In data set [1] (HEK 293 kidney cells, Table 2), the CC50 at 48 h is above 100 µM.

For `Cc1cc(C(C#N)c2ccc(Cl)cc2)c(Cl)cc1NC(=O)c1ccc(Br)cc1` (centres unmarked) [Compound 75, 4-bromo-N-(5-chloro-4-((4-chlorophenyl)(cyano)methyl)-2-methylphenyl)benzamide], the S. aureus Proliferation EC50 in the data set on S. aureus is above 100 µM. In data set [1] (HEK 293 kidney cells, Table 2), the 50% cytotoxic concentration (CC50) at 48 h was 33 µM.

In turn, `Cc1cc(C(C#N)c2ccc(Cl)cc2)c(Cl)cc1NC(=O)c1ccccc1Cl` (centres unmarked) [Compound 76, 2-chloro-N-(5-chloro-4-((4-chlorophenyl)(cyano)methyl)-2-methylphenyl)benzamide] showed a S. aureus Proliferation EC50 with S. aureus above 100 µM. In data set [1] (Table 2), the CC50 at 48 h was above 100 µM.

`Cc1cc(C(C#N)c2ccc(Cl)cc2)c(Cl)cc1NC(=O)c1cccc(Cl)c1` (centres unmarked) [Compound 77, 3-chloro-N-(5-chloro-4-((4-chlorophenyl)(cyano)methyl)-2-methylphenyl)benzamide] came in with a S. aureus Proliferation EC50 with S. aureus above 100 µM. Besides, in data set [1] (HEK 293 kidney cells, Table 2), the cytotoxic concentration (CC50) at 48 h is above 100 µM.

As for `Cc1cc(C(C#N)c2ccc(Cl)cc2)c(Cl)cc1NC(=O)c1ccc(Cl)cc1` (centres unmarked) [Compound 78, 4-chloro-N-(5-chloro-4-((4-chlorophenyl)(cyano)methyl)-2-methylphenyl)benzamide], the S. aureus Proliferation EC50 in the data set on S. aureus is above 100 µM. In data set [1] (HEK 293 kidney cells, Table 2), the CC50 at 48 h came out at 50 µM.

As to `Cc1cc(C(C#N)c2ccc(Cl)cc2)c(Cl)cc1NC(=O)c1ccccc1F` (centres unmarked) [Compound 79, N-(5-chloro-4-((4-chlorophenyl)(cyano)methyl)-2-methylphenyl)-2-fluorobenzamide], in the data set on S. aureus, the S. aureus Proliferation EC50 is above 100 µM. In addition, the CC50 at 48 h in data set [1] (HEK 293 kidney cells, Table 2) stood at 85 µM.

`Cc1cc(C(C#N)c2ccc(Cl)cc2)c(Cl)cc1NC(=O)c1cccc(F)c1` (centres unmarked) [Compound 80, N-(5-chloro-4-((4-chlorophenyl)(cyano)methyl)-2-methylphenyl)-3-fluorobenzamide] came in with a S. aureus Proliferation EC50 in the data set on S. aureus above 100 µM. Further, the CC50 at 48 h in data set [1] (HEK 293 kidney cells, Table 2) was 70 µM.

As for `Cc1cc(C(C#N)c2ccc(Cl)cc2)c(Cl)cc1NC(=O)c1ccc(F)cc1` (centres unmarked) [Compound 81, N-(5-chloro-4-((4-chlorophenyl)(cyano)methyl)-2-methylphenyl)-4-fluorobenzamide], in the data set with S. aureus, the S. aureus Proliferation EC50 is above 100 µM. For the same molecule, the half-maximal cytotoxic concentration (CC50) at 48 h in data set [1] (Table 2) was 78 µM.

`Cc1cc(C(C#N)c2ccc(Cl)cc2)c(Cl)cc1NC(=O)c1ccccc1` (centres unmarked) [Compound 82, N-(5-chloro-4-((4-chlorophenyl)(cyano)methyl)-2-methylphenyl)benzamide] displayed a S. aureus Proliferation EC50 with S. aureus above 100 µM. Moreover, in data set [1] (Table 2), the 50% cytotoxic concentration (CC50) at 48 h amounted to 47 µM.

Turning to `CC(=O)Nc1cc(Cl)c(C(C#N)c2ccc(Cl)cc2)cc1C` (centres unmarked) [Compound 83, N-(5-chloro-4-((4-chlorophenyl)(cyano)methyl)-2-methylphenyl)acetamide], the S. aureus Proliferation EC50 with S. aureus is above 100 µM. Besides, in data set [1] (HEK 293 kidney cells, Table 2), the CC50 at 48 h was determined as 83 µM.

As to `COc1ccc(Cl)cc1C(=O)Nc1ccc(C(C#N)c2ccccc2)cc1` (centres unmarked) [Compound 84, 5-chloro-N-(4-(cyano(phenyl)methyl)phenyl)-2-methoxybenzamide], the EC50 with S. aureus was above 100 µM. Further, the CC50 at 48 h in data set [1] (HEK 293 kidney cells, Table 3) was above 100 µM.

Turning to `N#CC(c1ccccc1)c1ccc(NC(=O)c2cc(Cl)ccc2O)cc1` (centres unmarked) [Compound 85, 5-chloro-N-(4-(cyano(phenyl)methyl)phenyl)-2-hydroxybenzamide], the EC50 in the data set with S. aureus turned out to be 1.1 µM. The CC50 at 48 h in data set [1] (HEK 293 kidney cells, Table 3) was 29 µM.

For the molecule `COc1ccc(Cl)cc1C(=O)Nc1ccc(Oc2ccc(Cl)cc2)c(Cl)c1` [Compound 86, 5-chloro-N-(3-chloro-4-(4-chlorophenoxy)phenyl)-2-methoxybenzamide], in the data set with S. aureus, the EC50 is above 100 µM. Further, the CC50 at 48 h in data set [1] (HEK 293 kidney cells, Table 3) is above 100 µM.

For `O=C(Nc1ccc(Oc2ccc(Cl)cc2)c(Cl)c1)c1cc(Cl)ccc1O` [Compound 87, 5-chloro-N-(3-chloro-4-(4-chlorophenoxy)phenyl)-2-hydroxybenzamide], in the data set with S. aureus, the EC50 amounted to 0.17 µM. Besides, the CC50 at 48 h in data set [1] (Table 3) is 10 µM.

With `COc1ccc(Cl)cc1C(=O)Nc1ccc(Oc2ccc(Cl)cc2)cc1` [Compound 88, 5-chloro-N-(4-(4-chlorophenoxy)phenyl)-2-methoxybenzamide], in the data set on S. aureus, the EC50 was above 100 µM. Also, the cytotoxic concentration (CC50) at 48 h in data set [1] (HEK 293 kidney cells, Table 3) was above 100 µM.

With `O=C(Nc1ccc(Oc2ccc(Cl)cc2)cc1)c1cc(Cl)ccc1O` [Compound 89, 5-chloro-N-(4-(4-chlorophenoxy)phenyl)-2-hydroxybenzamide], the EC50 with S. aureus amounted to 0.36 µM. In data set [1] (Table 3), the cytotoxic concentration (CC50) at 48 h turned out to be 15 µM.

In the case of `COc1ccc(Cl)cc1C(=O)Nc1ccc(Oc2ccccc2)c(Cl)c1` [Compound 90, 5-chloro-N-(3-chloro-4-phenoxyphenyl)-2-methoxybenzamide], the EC50 with S. aureus was above 100 µM. Besides, in data set [1] (HEK 293 kidney cells, Table 3), the cytotoxic concentration (CC50) at 48 h was above 100 µM.
